Read-outs that look alike come from different tables or passages of the source.
System: MRSA COL (MB5393)
Test: TarO Inhibitor/β-Lactam Synergy Assay
Assay type: cell-based, Staphylococcus aureus
Conditions: 20 hours; for IC95: TarO inhibitor alone, OD600, 95% growth inhibition, read-out: MITC95 TarO inhibitor alone, Bacteria: SA_MB5393; for MITC95 TarO inhibitor + 4 μg/mL IPM; Bacteria: SA_MB5393: in combination with 4 μg/mL imipenem; for MITC95 TarO inhibitor + 4 μg/mL IPM; Bacteria: SA_MB5393 / MITC95 TarO inhibitor + 8 μg/mL DCX; Bacteria: SA_MB5393: OD600; for MITC95 TarO inhibitor + 8 μg/mL DCX; Bacteria: SA_MB5393: in combination with 8 μg/mL dicloxacillin
Procedure: The TarO inhibitor/β-lactam synergy assay was performed to measure the re-sensitization of methicillin-resistant Staphylococci bacteria (MB5393: MRSA COL) to β-lactam antibiotics by TarO inhibitors. MRSA COL is a hospital-acquired penicillinase-negative clinically isolated strain commonly used in Staphylococcus aureus studies and is fully resistant to the antimicrobial bioactivity of β-lactam antibiotics, including but not limited to imipenem and dicloxacillin. […] MRSA COL is fully refractory to β-lactam antibiotic effect at the current clinical breakpoint concentrations and as such MRSA COL is fully viable at these concentrations.
The β-lactam antibiotic concentration was fixed at the clinical breakpoint (imipenem 4 μg/ml or dicloxacillin 8 μg/ml) and the TarO inhibitors were titrated by 2 fold starting from the highest concentration of 200 μM with final DMSO concentration of 2% in the assay. 5×10^5 colony forming unit of MRSA COL in cation-adjusted Mueller Hinton broth (CAMHB) was then mixed and the assay plate was incubated for 20 hours at 37° C. without shaking. After 20 hours, the optical density at 600 nm (OD600) was read for all wells to determine relative growth of MRSA COL.

SMILES | IC95 (Staphylococcus aureus) [µM] | MITC95 TarO inhibitor + 4 μg/mL IPM; Bacteria: SA_MB5393 [µM] | MITC95 TarO inhibitor + 8 μg/mL DCX; Bacteria: SA_MB5393 [µM] | IC95 [µM]
CCN(C(=O)CCn1c2cc(CN)ccc2nc1[C@H]1CC[C@H](CC)CC1)C1CCCCC1 [Example 27, 3-[6-(aminomethyl)-2-(trans-4-ethylcyclohexyl)-1H-benzimidazol-1-yl]-N-cyclohexyl-N-ethylpropanamide] | > 200 | 37.50 | 50 | 
CCN(C(=O)CCn1c(CN2CCC(C(C)(C)C)CC2)nc2ccccc21)C1CCCCC1 [Example 60, 3-{2-[(4-tert-butylpiperidin-1-yl)methyl]-1H-benzimidazol-1-yl}-N-cyclohexyl-N-ethylpropanamide] | > 200 | 0.78 | 6.25 | 
CCN(C(=O)CCn1c(-c2ccc(-n3ccnn3)cc2)nc2ccccc21)C1CCCCC1 [Example 42, N-cyclohexyl-N-ethyl-3-{2-[4-(1H-1,2,3-triazol-1-yl)phenyl]-1H-benzimidazol-1-yl}propanamide] | > 200 | 18.75 | 25.00 | 
CCN(C(=O)CCn1c2cccc(C(F)F)c2nc1[C@H]1CC[C@H](C)CC1)C1CCCCC1 [Example 20, N-cyclohexyl-3-[4-(difluoromethyl)-2-(trans-4-methylcyclohexyl)-1H-benzimidazol-1-yl]-N-ethylpropanamide] | 100 | 1.56 | 12.50 | 
CCN(C(=O)CCn1c(N2CCC(F)(F)CC2)nc2ccccc21)C1CCCCC1 [Example 55, N-cyclohexyl-3-(2-(4,4-difluoropiperidin-1-yl)-1H-benzo[d]imidazol-1-yl)-N-ethylpropanamide] | > 200 | 1.37 | 7.81 | 
CCN(C(=O)CCn1c(C2CCCN(c3ccccn3)C2)nc2ccccc21)C1CCCCC1 (centres unmarked) [Example 48, N-cyclohexyl-N-ethyl-3-[2-(1-pyridin-2-ylpiperidin-3-yl)-1H-benzimidazol-1-yl]propanamide] | > 200 | 1.56 | 50 | 
CCC1CCN(Cc2nc3cc(C)ccc3n2CCC(=O)N(CC)C2CCCCC2)CC1 [Example 61, N-cyclohexyl-N-ethyl-3-{2-[(4-ethylpiperidin-1-yl)methyl]-5-methyl-1H-benzimidazol-1-yl}propanamide] | 50 | 6.25 | 25 | 
CCN(C(=O)CCn1c2ccc(OC)cc2nc1[C@H]1CC[C@H](CC)CC1)C1CCCCC1 [Example 16, N-cyclohexyl-N-ethyl-3-[2-(trans-4-ethylcyclohexyl)-5-methoxy-1H-benzimidazol-1-yl]propanamide] | > 200 | 1.04 | 14.58 | 
CCN(C(=O)CCn1c2cccc(C[C@H]3CCOC3)c2nc1[C@H]1CC[C@H](CC)CC1)C1CCCCC1 [Example 29, N-cyclohexyl-N-ethyl-3-{2-(trans-4-ethylcyclohexyl)-4-[(3S)-tetrahydrofuran-3-ylmethyl]-1H-benzimidazol-1-yl}propanamide] | > 200 | 1.56 | 6.25 | 
CN(C(=O)CCn1c(C2CCCCC2)nc2ccccc21)C1CCCCC1 [Example 39, N-cyclohexyl-3-(2-cyclohexyl-1H-benzimidazol-1-yl)-N-methylpropanamide] | > 200 | 4.69 | 12.50 | 
CCN(C(=O)CCn1c2ccc(CO)cc2nc1[C@H]1CC[C@H](CC)CC1)C1CCCCC1 [Example 1, N-cyclohexyl-N-ethyl-3-(2-(trans-4-ethylcyclohexyl)-5-(hydroxymethyl)-1H-benzo[d]imidazol-1-yl)propanamide] | > 200 | 1.82 | 6.25 | 
CCN(C(=O)CCn1c2cc(C#N)ccc2nc1[C@H]1CC[C@H](CC)CC1)C1CCCCC1 [Example 3, 3-[6-cyano-2-(trans-4-ethylcyclohexyl)-1H-benzimidazol-1-yl]-N-cyclohexyl-N-ethylpropanamide] | > 200 | 4.17 | 20.83 | 
CCC1CCN(Cc2nc3ccccc3n2CCC(=O)N(CC)C2CCCCC2)CC1 [Example 62, N-cyclohexyl-N-ethyl-3-{2-[(4-ethylpiperidin-1-yl)methyl]-1H-benzimidazol-1-yl}propanamide] | > 200 | 6.25 | 25 | 
CCN(C(=O)CCn1c(C2CCC(C)N(c3nccc(OC)n3)C2)nc2ccccc21)C1CCCCC1 (centres unmarked) [Example 50, N-cyclohexyl-N-ethyl-3-{2-[1-(4-methoxypyrimidin-2-yl)-6-methylpiperidin-3-yl]-1H-benzimidazol-1-yl}propanamide] | 100 | 0.20 | 1.56 | 
CCN(C(=O)CCn1c(C2CCC(C)N(c3cccc(OC)n3)C2)nc2ccccc21)C1CCCCC1 (centres unmarked) [Example 44, N-cyclohexyl-N-ethyl-3-{2-[1-(6-methoxypyridin-2-yl)-6-methylpiperidin-3-yl]-1H-benzimidazol-1-yl}propanamide] | 100 | 0.10 | 0.20 | 
CCOC(=O)N1CCCC(c2nc3cc(F)ccc3n2CCC(=O)N(CC)C2CCCCC2)C1 (centres unmarked) [Example 13, Ethyl 3-(1-{3-[cyclohexyl(ethyl)amino]-3-oxopropyl}-5-fluoro-1H-benzimidazol-2-yl)piperidine-1-carboxylate] | > 200 | 0.35 | 2.19 | 
CCN(C(=O)CCn1c2cc(CO)ccc2nc1[C@H]1CC[C@H](CC)CC1)C1CCCCC1 [Example 14, N-cyclohexyl-N-ethyl-3-[2-(trans-4-ethylcyclohexyl)-6-(hydroxymethyl)-1H-benzimidazol-1-yl]propanamide] | > 200 | 0.52 | 3.13 | 
CCN(C(=O)CCn1c(C2CCCCC2)cc2ccccc21)C1CCCCC1 [Example 64, N-cyclohexyl-3-(2-cyclohexyl-1H-indol-1-yl)-N-ethylpropanamide] | > 200 | 6.20 |  | 
CCOC(=O)N1CCCC(c2nc3cc(F)ccc3n2CCC(=O)N(CC)C2CCCCC2)C1 (centres unmarked) [Example 18, Ethyl 3-(1-{3-[cyclohexyl(ethyl)amino]-3-oxopropyl}-5-fluoro-1H-benzimidazol-2-yl)piperidine-1-carboxylate] |  | 1.09 | 23.75 | >200
CCN(C(=O)CCn1c2cc(C[C@H]3CCOC3)ccc2nc1[C@H]1CC[C@H](CC)CC1)C1CCCCC1 [Example 28, N-cyclohexyl-N-ethyl-3-{2-(trans-4-ethylcyclohexyl)-6-[(3S)-tetrahydrofuran-3-ylmethyl]-1H-benzimidazol-1-yl}propanamide] | > 200 | 1.30 | 4.17 | 
CCCOC(=O)N1CCCC(c2nc3ccccc3n2CCC(=O)N(CC)C2CCCCC2)C1 (centres unmarked) [Example 51, Propyl 3-(1-{3-[cyclohexyl(ethyl)amino]-3-oxopropyl}-1H-benzimidazol-2-yl)piperidine-1-carboxylate] | 100 | 0.39 | 3.13 | 
CCN(C(=O)CCn1c2cc(-c3cnn(C)c3)ccc2nc1[C@H]1CC[C@H](CC)CC1)C1CCCCC1 [Example 25, N-cyclohexyl-N-ethyl-3-[2-(trans-4-ethylcyclohexyl)-6-(1-methyl-1H-pyrazol-4-yl)-1H-benzimidazol-1-yl]propanamide] | > 200 | 0.38 | 1.30 | 
CCN(C(=O)CCn1c(C2CCCN(c3nccc(OC)n3)C2)nc2ccccc21)C1CCCCC1 (centres unmarked) [Example 43, N-cyclohexyl-N-ethyl-3-(2-(1-(4-methoxypyrimidin-2-yl)piperidin-3-yl)-1H-benzo[d]imidazol-1-yl)propanamide] | 100 | 0.20 | 0.78 | 
CCN(C(=O)CCn1c2cc(CN3CCN(CC(F)(F)F)CC3)ccc2nc1[C@H]1CC[C@H](CC)CC1)C1CCCCC1 [Example 30, N-cyclohexyl-N-ethyl-3-[2-(trans-4-ethylcyclohexyl)-6-{[4-(2,2,2-trifluoroethyl)piperazin-1-yl]methyl}-1H-benzimidazol-1-yl]propanamide] | > 200 | 18.75 | 25 | 
